Reference: patent US20250275964A1, “METHODS OF INHIBITING LIVER-TYPE GLUTAMINASE, GLS2” (CORNELL UNIVERSITY, priority 2019, published 2025)

Tests used:
MDA-MB-231 cells = experiment: 6-day cell proliferation assay, MDA-MB-231; format: cell-based, human
Protocol: (§1) Human breast cancer cell lines MCF7, BT-474, T-47D, MDA-MB-453, MDA-MB-231, Hs 578T, HCC38, SK-BR-3, and DU4475 were purchased from the American Type Culture Collection (ATCC) and no additional cell authentication was performed. The TSE human breast cancer cell line was supplied by Dr. Steven Abcouwer (University of Michigan). All breast cancer cells were cultured at 37° C. under a 5% CO2 atmosphere in RPMI 1640 medium containing 2 mM glutamine (Gibco) and supplemented with 10% fetal bovine serum (FBS) (Gibco). The 293T cell line (ATCC) used for generating lentivirus particles was cultured as above but using DMEM, high glucose (Gibco).
(§2) Culture medium was added to 12-well plates (1 ml/well) and wells were seeded with cells at Day 0 as follows. MCF7, T-47D, BT-474, HCC38 cells: […] cells/well. MDA-MB-453 and MDA-MB-231 cells: 1×10^4 cells/well. TSE and Hs 578T cells: 0.3×10^4 cells/well. After 16 hours, culture medium was replaced with fresh medium supplemented with appropriate concentrations of inhibitors and was subsequently replaced every 48 hours. On Day 6 cells were trypsinized and suspended in an appropriate volume of culture medium, and the total number of cells per well was determined using a hemocytometer or a TC20 Automated Cell Counter (Bio-Rad).

TSE cells = experiment: 6-day cell proliferation assay, TSE; format: cell-based, human
Protocol: as §1, §2

HCC38 cells = experiment: 6-day cell proliferation assay, HCC38; format: cell-based, human; details: HCC38, proliferation over 6 days
Protocol: as §1, §2

[1] = test system: glutaminase activity in mitochondria isolated from breast cancer cell lines; experiment: Mitochondrial glutaminase activity assay; format: biochemical, human
Source text: Breast cancer cells were fractionated into cytosolic, mitochondrial, and nuclear components via partial lysis and centrifugation using the Qproteome Mitochondria Isolation Kit (Qiagen). For all samples, a portion of the starting material (i.e. whole cells) was retained for comparison with the isolated fractions. When cellular fractions were to be analyzed only by western blot, a single 10 cm dish of exponentially growing cells was used. When mitochondria were isolated for glutaminase assays, two 15 cm dishes of exponentially growing cells were used.
A two-reaction protocol was used to measure mitochondrial glutaminase activity. […] The reaction was then quenched by addition of 10 μl of 2.4 M HCl, and samples placed on ice. Next, 20 μl of quenched Reaction Mix 1 was added to 200 μl of Reaction Mix 2 (1 unit bovine liver glutamate dehydrogenase (Sigma-Aldrich), 80 mM Tri-HCl pH 9.4, 200 mM hydrazine, 0.25 mM ADP, 2 mM NAD) and samples were incubated for 1 hour at room temperature. The absorbance at 340 nm was then measured against a matched sample in which heat-inactivated mitochondria (immersed in boiling water for 5 minutes) were used. A standard curve was prepared using given concentrations of glutamate in Reaction Mix 2, allowing the amount of glutamate produced in Reaction 1 to be determined.

[2] = test system: MDA-MB-453 xenograft tumors; experiment: MDA-MB-453 xenograft tumor growth in mice; format: in vivo; details: 10 mg/kg, 3 times per week from Day 14 for three weeks, NSG mice
Protocol: (§3) All experiments involving mice were carried out according to protocols approved by the Institutional Animal Care and Use Committee at Cornell University. In all cases, 6-8 week old female NOD.Cg-Prkdcscid Il2rg^tm1Wjl/SzJ (NSG) mice (The Jackson Laboratory) were used. For xenograft experiments, a suspension of MDA-MB-453 breast cancer cells (or derivative cell lines stably expressing shRNAs) was mixed 1:1 with Matrigel Matrix (BD Biosciences) to give a final concentration of 3×10^6 cells per 100 μl, and 3×10^6 cells were immediately injected into each of the two flanks of 6-8 week old female NOD.Cg-Prkdc^scid Il2rg^tm1Wjl/SzJ (NSG) mice (n=3 mice per condition). Tumor sizes were measured using calipers, and estimated volumes were calculated using the formula V=(π/6)×length×width^2, as described previously (Tomayko et al., “Determination of Subcutaneous Tumor Size in Athymic (Nude) Mice,” Cancer Chemother Pharmacol. 24:148-154 (1989), which is hereby incorporated by reference in its entirety). For experiments using MDA-MB-453 cells stably expressing shRNAs, mice were sacrificed after 6 weeks. For 968 treatment studies, when tumors of 1-2 mm diameter were detected, the mice were randomly divided into two groups and intraperitoneal (IP) injections of 968 (10 mg/kg) solution or carrier solution were initiated and carried out three times weekly. […]

breast cancer cell lines = experiment: 6-day cell proliferation assay, collection of breast cancer cell lines; format: cell-based, human
Protocol: as §1, §2

[3] = biological target: T1, recombinant full-length human GLS (GAC splice variant) (Homo sapiens, UniProt O94925); experiment: Real-time recombinant glutaminase activity assay, GLS; format: biochemical; details: different concentrations
T1 construct: processed forms of human GAC (residues 72 to 598); inferred from pQE80 vector and Ni-NTA/imidazole purification; made in house; host or cells: E. coli BL21(DE3)
T1 sequence (O94925 72-598 isoform O94925-3): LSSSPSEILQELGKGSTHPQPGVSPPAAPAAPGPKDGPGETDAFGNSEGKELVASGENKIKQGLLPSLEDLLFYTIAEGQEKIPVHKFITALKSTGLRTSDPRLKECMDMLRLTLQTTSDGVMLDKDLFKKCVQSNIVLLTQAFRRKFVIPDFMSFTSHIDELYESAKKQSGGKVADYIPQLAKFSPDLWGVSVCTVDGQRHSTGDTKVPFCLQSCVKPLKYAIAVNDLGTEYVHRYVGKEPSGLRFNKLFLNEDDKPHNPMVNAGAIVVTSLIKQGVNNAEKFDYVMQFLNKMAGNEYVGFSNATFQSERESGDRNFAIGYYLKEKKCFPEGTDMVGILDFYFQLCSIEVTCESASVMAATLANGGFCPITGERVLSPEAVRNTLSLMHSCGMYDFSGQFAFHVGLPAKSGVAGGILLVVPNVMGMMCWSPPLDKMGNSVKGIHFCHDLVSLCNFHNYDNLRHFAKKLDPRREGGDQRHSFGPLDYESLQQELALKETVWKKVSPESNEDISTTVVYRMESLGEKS
Protocol: Real-time monitoring of glutaminase activity through NADH production was performed on a Cary Eclipse fluorescence spectrometer. The excitation and emission wavelengths were set at 340 nm and 460 nm, respectively. […] Then, 100 μl of either 100 nM GAC or 500 nM GLS2 was added to this mixture and the fluorescence emission was monitored in real time. After 30 s, 200 μl of a mixture of glutamine and K2HPO4 was added such that the final concentrations of K2HPO4 and glutamine were 100 mM and 20 mM, respectively. The initial velocity of glutamine hydrolysis was obtained from the slopes of the linear portion of the kinetic curve.

[4] = Gross toxicity in treated mice; format: in vivo; details: 10 mg/kg body weight, three times weekly for three weeks
Protocol: as §3

[5] = biological target: T1, recombinant full-length human GLS (GAC splice variant); details: previously reported (Wang et al. 2010); cited from earlier work
[6] = test system: primary human mammary epithelial cells or fibroblasts; details: Wang et al. 2010; cited from earlier work
[7] = MDA-MB-231 (parental), compared with GLS2 clones, 6 days
[8] = MDA-MB-231, proliferation over 6 days
[9] = TSE (parental), compared with GLS2 clones, 6 days

Compound | EC50 (MDA-MB-231 cells; [7]) [µM] | EC50 (MDA-MB-231 cells; [8]) [µM] | EC50 (TSE cells; [9]) [µM] | EC50 (TSE cells; TSE, proliferation over 6 days) [µM] | EC50 (HCC38 cells) [µM] | inhibition of mitochondrial glutaminase activity ([1]; mitochondria from MDA-MB-453 cells) | inhibition of mitochondrial glutaminase activity ([1]; mitochondria from basal-subtype cells, 10 μM) | inhibition of mitochondrial glutaminase activity ([1]; mitochondria from luminal-subtype breast cancer cells) | tumor growth [2] | EC50 (breast cancer cell lines; breast cancer cells, 6 days) [µM] | maximal inhibition (breast cancer cell lines; cells with highest expression of GLS) | inhibition of recombinant GLS activity [3] | toxicity [4] | binding and inhibition of GLS splice variant GAC [5] | growth of primary human mammary epithelial cells or fibroblasts [6]
O=C(Cc1ccccc1)Nc1nnc(CCSCCc2nnc(NC(=O)Cc3ccccc3)s2)s1 [BPTES] | 2 | 2.1 | 3 | 3.1 | 4.7 | no effect on activity | almost completely abolished | only partially inhibited | did not significantly impact tumor growth |  |  |  |  |  | 
CN(C)c1ccc(C2Nc3ccc4ccccc4c3C3=C2C(=O)CC(C)(C)C3)cc1Br (stereo not drawn) [Compound 968] | 4 | 5 | 4 | 5 | 4 |  |  |  | robustly inhibited | 3 to 5 | 70-75% | inhibited | no gross evidence of toxicity | binds and inhibits | does not affect the growth
